“Also recorded” adds a separate entry of the source.
What was measured:
[1] = tested on: GFP-VV; assay type: cell-based, Vaccinia virus
[2] = tested on: VV-WR
[3] = tested on: Abl-tyrosine family kinases; details: Shah et al. (2004) Science 305:399-401; cited from earlier work
[4] = tested on: VV (strain WR); assay type: cell-based, Vaccinia virus
[5] = tested on: EPEC (strain 2389/69); assay: EPEC actin pedestal formation on 3T3 cells; assay type: cell-based, enteropathogenic E. coli
[6] = tested on: VV extracellular enveloped virus (EEV); assay type: cell-based, Vaccinia virus
[7] = tested on: Mycobacterium tuberculosis (TB); assay type: cell-based
[8] = tested on: VV; assay type: cell-based, Vaccinia virus
[9] = tested on: VV; details: 100 mg/kg/day via subcutaneous osmotic pump, 10^4 pfu VV intraperitoneally, four days post infection; FIG. 4
[10] = tested on: HIV-1 Bal; assay: p24 production of macrophages infected with HIV-1 Bal; assay type: cell-based
[11] = Tolerability of the drugs in uninfected mice
[12] = up to 100 mg/kg/day i.p., 10 day period

## Cc1ccc(NC(=O)c2ccc(CN3CCN(Cc4ccccc4)CC3)cc2)cc1Nc1nccc(-c2cccnc2)n1 [STI-X]
[1]
  actin tail formation: failed to form actin tails
  percentage of cells containing DAPI-stained extranuclear viral replication factories: 4%
  replication centers (DAPI staining or α-Ptyr pAb) and actin motility: still evident; also recorded: no effect
  viral entry (GFP-labeled virions and EVP staining): little detectable effect on viral entry
[2]
  plaque formation: reduced
  tolerability by the cells in plaque assays: well tolerated

## Cc1nc(Nc2ncc(C(=O)Nc3c(C)cccc3Cl)s2)cc(N2CCN(CCO)CC2)n1 [BMS-354825, N-(2-chloro-6-methylphenyl)-2-(6-(4-(2-hydroxyethyl)piperazin-1-yl)-2-methylpryimidin-4-ylamino)thiazole-5-carboxamide]
[3]
  potency relative to STI-571: two-log increased potency

## CC(C)(C)n1nc(-c2ccc(Cl)cc2)c2c(N)ncnc21 [PP2]
[4]
  concentrations that blocked actin tails: ≥ 25 µM
[5]; Abl−/−/Arg−/− cells
  pedestals in Abl−/−/Arg−/− cells: not
[5]; concentrations up to 100 μM, the highest tested
  pedestal formation: without effect

## Cc1ccc(NC(=O)c2ccc(CN3CCN(C)CC3)cc2)cc1Nc1nccc(-c2cccnc2)n1 [STI-571, 4-[(4-Methyl-1-piperazinyl)methyl]-N-[4-methyl-3-[[4-(3-pyridinyl)-2-pyrimidinyl]amino]-phenyl]benzamide methanesulfonate]
[6]
  formation of comets apposed to plaques: blocked the formation
  reduction in PFU of supernatant on BSC-40 cells: ~2 fold
[4]
  actin tail formation: did not block actin tail formation
  average number of actin tails per cell: ~3 per cell
  cells having no actin tails: 30%
  number of actin tails per cell: no detectable effects
  reduction of average number of actin tails per cell: 16 fold
  viral replication (extranuclear DAPI staining) and transit of GFP-labeled virions to the cell periphery: no effect
[4]; methanesulfonate
  VV actin motility, actin tail formation or number: no discernable effect; also recorded: no difference in actin tail formation or number was evident
[7]
  intercellular survival of M. tuberculosis: increases the intercellular survival
[5]; 25 μM
  EPEC pedestal formation: did not
[8]
  amount of virus produced (viral replication): nearly equivalent amounts of virus
[9]
  reduction of viral load (copies of VV UDG gene per 250 ng DNA of ovary): 4-5 logs
[2]
  plaque formation: did inhibit plaque formation
[10]; Cells + HIV-1 Bal + drug 1 μM, HIV-1 Bal alone 322 +/− 28
  P24 day 7: 287 ± 31 pg/mL
[10]; Cells + HIV-1 Bal + drug 1 μM, HIV-1 Bal alone 956 +/− 34
  P24 day 14: 744 ± 27 pg/mL
[10]; Cells + HIV-1 Bal + drug 5 μM
  P24 day 7: 212 ± 44 pg/mL
  P24 day 14: 556 ± 28 pg/mL
[10]; Cells + HIV-1 Bal + drug 10 μM
  P24 day 7: 127 ± 22 pg/mL
  P24 day 14: 245 ± 31 pg/mL
[10]; Cells + drug 1 μM, no virus
  P24 day 7: <10 pg/mL
  P24 day 14: <10 pg/mL
[10]; Cells + drug 5 μM, no virus
  P24 day 7: <10 pg/mL
  P24 day 14: <10 pg/mL
[10]; Cells + drug 10 μM, no virus
  P24 day 7: <10 pg/mL
  P24 day 14: <10 pg/mL
[10]; dose dependent, 1-10 μM
  reduction of viral replication (p24 levels): up to 4 fold
[11]; 100 mg/kg/day, subcutaneously implanted osmotic pumps
  weight and other adverse effects in uninfected animals: no loss in weight or other adverse effects
[11]; intraperitoneal injection, up to 100 mg/kg/day in saline, up to 10 days
  tolerability: well tolerated
[11]; [12]
  pathology upon necropsy with drug alone: no overt pathology
  weight loss with drug alone: no indication of weight loss
